What all share (type): functional
The test system of experiment [1] is Staphylococcus aureus. Kind of experiment: Antibacterial activity against VAN-intermediate Staphylococcus aureus ATCC 700698 after 18 hrs by agar dilution method. To be noted: ATCC 700698, 18 h.
Experiment [2] has as its system Staphylococcus aureus. Kind of experiment: Antibacterial activity against methicillin-resistant Staphylococcus aureus ATCC 33591 after 18 hrs by agar dilution method. To be noted: ATCC 33591, 18 h.
For experiment [3], the system named is Staphylococcus aureus. Kind of experiment: Antibacterial activity against methicillin-sensitive Staphylococcus aureus ATCC 29213 after 18 hrs by agar dilution method. As to conditions: ATCC 29213, 18 h.
In the next experiment the test system is Enterococcus faecium. Kind of experiment: Antibacterial activity against VAN-resistant Enterococcus faecium ATCC 700221 after 18 hrs by agar dilution method. To be noted: ATCC 700221, 18 h.
Experiment [4] has as its system Staphylococcus epidermidis. Kind of experiment: Antibacterial activity against methicillin-resistant Staphylococcus epidermidis 13-3 after 18 hrs by agar dilution method. To be noted: 13-3, 18 h.
For experiment [5], the system named is Enterococcus faecalis. The experiment in a line: Antibacterial activity against VAN-resistant Enterococcus faecalis ATCC 51299 after 18 hrs by agar dilution method. To be noted: ATCC 51299, 18 h.
Experiment [6] relates to Enterococcus faecalis. The experiment in a line: Antibacterial activity against VAN-sensitive Enterococcus faecalis ATCC 29212 after 18 hrs by agar dilution method. To be noted: ATCC 29212, 18 h.

The text below walks through data of ChEMBL document CHEMBL4340517, “Synthesis and biological evaluation of 7-substituted cycloberberine derivatives as potent antibacterial agents against MRSA” (2019).

The structures appear in SMILES notation. Converted amounts (≈) assume the structure as drawn.

Take `CCCc1cc2c3ccc(OC)c(OC)c3c(-c3ccc(Cl)cc3)[n+]3c2c2c(cc4c(c12)OCO4)CC3.[Br-]`: the MIC was 32 µg/mL against Staphylococcus aureus [1]; 8 µg/mL in the experiment on Staphylococcus aureus [2]; 2 µg/mL against Staphylococcus aureus [3]; above 128 µg/mL in the experiment on Enterococcus faecium; 4 µg/mL in experiment [4]; 32 µg/mL in the experiment with Enterococcus faecalis [5]. In the experiment with Enterococcus faecalis [6], this compound registered an MIC of 16 µg/mL.

Turning to `COc1ccc2c(c1OC)c(-c1ccc3c(c1)OCO3)[n+]1c3c2ccc2c4c(cc(c23)CC1)OCO4.[Br-]`, the MIC came to 32 µg/mL against Staphylococcus aureus [1]; 16 µg/mL with Staphylococcus aureus [2]; 16 µg/mL against Staphylococcus aureus [3]; 8 µg/mL in the experiment on Enterococcus faecium; 2 µg/mL in experiment [4]; 8 µg/mL with Enterococcus faecalis [5]. This compound also came in with an MIC against Enterococcus faecalis [6] of 8 µg/mL.

For the compound `COc1ccc2c(c1OC)c(-c1ccc(Cl)cc1)[n+]1c3c2ccc2c4c(cc(c23)CC1)OCO4.[Br-]`, the MIC in the experiment with Staphylococcus aureus [1] is 8 µg/mL; in the experiment on Staphylococcus aureus [2] it was 4 µg/mL; against Staphylococcus aureus [3], 2 µg/mL; in the experiment with Enterococcus faecium, above 128 µg/mL; in experiment [4], 1 µg/mL; in the experiment on Enterococcus faecalis [5], 8 µg/mL. Moreover, the MIC against Enterococcus faecalis [6] came out at 8 µg/mL.

As to `COc1cc2c3c(ccc4c5ccc(OC)c(OC)c5c(-c5ccc6c(c5)OCO6)[n+](c43)CC2)c1OC.[Br-]`, the MIC was 32 µg/mL against Staphylococcus aureus [1]; 8 µg/mL against Staphylococcus aureus [2]; 4 µg/mL with Staphylococcus aureus [3]; above 128 µg/mL in the experiment on Enterococcus faecium; 2 µg/mL in experiment [4]; 32 µg/mL in the experiment on Enterococcus faecalis [5]. The same compound registered a minimum inhibitory concentration (MIC) against Enterococcus faecalis [6] of 32 µg/mL.

For `CCCCc1cc2c3ccc(OC)c(OC)c3c(-c3ccc(Cl)cc3)[n+]3c2c2c(cc4c(c12)OCO4)CC3.[Br-]`, the MIC against Staphylococcus aureus [1] is 32 µg/mL; against Staphylococcus aureus [2], 1 µg/mL; in the experiment on Staphylococcus aureus [3], 1 µg/mL; in the experiment with Enterococcus faecium, 1 µg/mL; in experiment [4], 1 µg/mL; against Enterococcus faecalis [5], 2 µg/mL. In the experiment on Enterococcus faecalis [6], the MIC was 1 µg/mL.

Consider `COc1ccc2c(c1OC)c(C1CC1)[n+]1c3c2ccc2c4c(cc(c23)CC1)OCO4.[Br-]`, for which the MIC with Staphylococcus aureus [1] turned out to be 16 µg/mL; against Staphylococcus aureus [2], 16 µg/mL; against Staphylococcus aureus [3], 8 µg/mL; in the experiment with Enterococcus faecium it was 16 µg/mL; in experiment [4], 8 µg/mL; with Enterococcus faecalis [5], 16 µg/mL. The same compound returned an MIC in the experiment with Enterococcus faecalis [6] of 16 µg/mL.

Consider `C=Cc1c2c(OC)c(OC)ccc2c2ccc3c4c(cc5c3c2[n+]1CC5)OCO4.[Br-]`, for which the MIC in the experiment with Staphylococcus aureus [1] is 8 µg/mL; in the experiment on Staphylococcus aureus [2], 8 µg/mL; in the experiment on Staphylococcus aureus [3], 4 µg/mL; with Enterococcus faecium it was 4 µg/mL; in experiment [4] it was 2 µg/mL; against Enterococcus faecalis [5], 4 µg/mL. This compound also yielded an MIC in the experiment on Enterococcus faecalis [6] of 4 µg/mL.

As for `COc1ccc2c(c1OC)c(CC(C)C)[n+]1c3c2ccc2c4c(cc(c23)CC1)OCO4.[Br-]`, the MIC in the experiment on Staphylococcus aureus [1] stood at 16 µg/mL; against Staphylococcus aureus [2], 16 µg/mL; against Staphylococcus aureus [3], 4 µg/mL; against Enterococcus faecium, 16 µg/mL; in experiment [4], 4 µg/mL; against Enterococcus faecalis [5], 16 µg/mL. The compound also displayed an MIC with Enterococcus faecalis [6] of 16 µg/mL.

For `COc1ccc2c(c1OC)c(-c1ccc(C)cc1)[n+]1c3c2ccc2c4c(cc(c23)CC1)OCO4.[Br-]`, the MIC with Staphylococcus aureus [1] turned out to be 16 µg/mL; in the experiment on Staphylococcus aureus [2], 16 µg/mL; with Staphylococcus aureus [3] it was 8 µg/mL; in the experiment on Enterococcus faecium it was 16 µg/mL; in experiment [4], 8 µg/mL; with Enterococcus faecalis [5], 16 µg/mL. In addition, in the experiment with Enterococcus faecalis [6], the MIC is 16 µg/mL.

For the compound `CN[C@H](CC(C)C)C(=O)N[C@H]1C(=O)N[C@@H](CC(N)=O)C(=O)N[C@H]2C(=O)N[C@H]3C(=O)N[C@H](C(=O)N[C@H](C(=O)O)c4cc(O)cc(O)c4-c4cc3ccc4O)[C@H](O)c3ccc(c(Cl)c3)Oc3cc2cc(c3O[C@@H]2O[C@H](CO)[C@@H](O)[C@H](O)[C@H]2O[C@H]2C[C@](C)(N)[C@H](O)[C@H](C)O2)Oc2ccc(cc2Cl)[C@H]1O` [VANCOMYCIN], the MIC against Staphylococcus aureus [1] came to 8 µg/mL (≈ 5.52 µM); with Enterococcus faecium, 64 µg/mL (≈ 44.2 µM); in the experiment with Enterococcus faecalis [5], 32 µg/mL (≈ 22.1 µM); with Enterococcus faecalis [6], 2 µg/mL (≈ 1.38 µM).
